# Like-named read-outs stand apart in the source and are kept apart here.
# Columns and labels:
# [1] = biological target: HDAC1 (Homo sapiens, UniProt Q13547); assay: HDAC enzymatic assay, fluorescence-labeled substrate; assay type: biochemical; details: for inhibition at 10 µM: source data of Fig. 1B
# [2] = biological target: T1, HDAC4 (Homo sapiens, UniProt P56524); assay: HDAC assay (Eurofins); assay type: biochemical
# T1 construct: purchased Eurofins (contracted assay service)
# [3] = biological target: T2, HDAC10 (Homo sapiens, UniProt Q969S8); assay: HDAC assay (Eurofins); assay type: biochemical
# T2 construct: purchased Eurofins (contracted assay service)
# T2 sequence (Q969S8 1-669): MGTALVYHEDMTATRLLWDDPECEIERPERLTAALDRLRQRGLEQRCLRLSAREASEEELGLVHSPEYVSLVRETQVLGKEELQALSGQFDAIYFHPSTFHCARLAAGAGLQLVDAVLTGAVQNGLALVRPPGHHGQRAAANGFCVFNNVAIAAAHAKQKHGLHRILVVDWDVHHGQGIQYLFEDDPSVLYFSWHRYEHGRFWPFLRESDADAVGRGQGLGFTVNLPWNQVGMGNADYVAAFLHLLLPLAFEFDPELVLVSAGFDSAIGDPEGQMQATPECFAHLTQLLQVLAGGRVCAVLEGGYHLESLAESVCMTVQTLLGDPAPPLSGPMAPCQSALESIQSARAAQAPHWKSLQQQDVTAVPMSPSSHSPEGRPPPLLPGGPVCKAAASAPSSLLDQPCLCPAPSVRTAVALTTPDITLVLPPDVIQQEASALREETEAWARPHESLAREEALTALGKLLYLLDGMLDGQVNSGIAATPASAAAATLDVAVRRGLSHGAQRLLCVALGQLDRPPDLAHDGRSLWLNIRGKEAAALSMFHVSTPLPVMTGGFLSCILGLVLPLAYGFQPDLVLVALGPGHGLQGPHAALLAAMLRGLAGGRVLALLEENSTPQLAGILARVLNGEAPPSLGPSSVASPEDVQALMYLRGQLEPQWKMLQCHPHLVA
# [4] = biological target: T3, cytochrome P450 1A2 (Homo sapiens, UniProt P05177); assay: CYP inhibition in human liver microsomes; assay type: in vitro ADME; details: 10 µM
# T3 construct: Corning Cat # 452117); tissue Corning 452117; host or cells: human liver microsomes
# T3 sequence (P05177 whole entry): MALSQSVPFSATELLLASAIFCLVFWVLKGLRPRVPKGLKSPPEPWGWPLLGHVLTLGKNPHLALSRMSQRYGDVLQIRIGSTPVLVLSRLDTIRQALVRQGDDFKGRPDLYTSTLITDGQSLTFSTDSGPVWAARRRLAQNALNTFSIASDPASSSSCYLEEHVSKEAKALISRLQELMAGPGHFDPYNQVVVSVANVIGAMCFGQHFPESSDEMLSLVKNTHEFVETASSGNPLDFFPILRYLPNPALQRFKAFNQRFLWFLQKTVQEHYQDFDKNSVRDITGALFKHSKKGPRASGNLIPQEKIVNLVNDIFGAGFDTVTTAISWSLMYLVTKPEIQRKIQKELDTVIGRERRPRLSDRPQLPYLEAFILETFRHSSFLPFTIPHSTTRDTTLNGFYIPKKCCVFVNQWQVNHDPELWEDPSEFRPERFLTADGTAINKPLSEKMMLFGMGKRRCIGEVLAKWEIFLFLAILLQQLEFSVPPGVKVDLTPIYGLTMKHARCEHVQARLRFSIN
# Description: (§1) This study was conducted at Wuxi (http://www.wuxi.com/). The inhibitory effects of CM-444 and CM-1758 on five human cytochrome P450s (1A2, 2C9, 2C19, 2D6 and 3A4) were evaluated in human liver microsomes. Test compounds (10 µM final concentration) or control compounds (α-naphthoflavone, sulfaphenazole, (+)-N-3-benzylnirvanol, quinidine, ketoconazole; 3-µM final concentration), and the corresponding substrates for each P450 isoform (1A2: phenacetin, 10-µM final concentration; 2C9: diclofenac, 5-µM final concentration; 2C19: S-mephenytoin, 30-µM final concentration, 2D6: dextromethorphan, 5-µM final concentration; 3A4: midazolam, 2-µM final concentration) were incubated with human liver microsomes (0.2-mg/mL final concentration; Corning Cat # 452117) and NADPH cofactor (1-mM final concentration, Chem-impex Cat # 00616) for 10 min at 37 °C. The reaction was terminated by adding 400 µL of cold stop solution (200 ng/mL tolbutamide and labetalol in acetonitrile), and the samples were centrifuged at 1520 g for 20 min. Next, 200-μL aliquots of supernatants were diluted with 100 μL of ultra-pure water and shaken for 10 min. The samples were analyzed by LC-MS/MS using an analyte/internal standard peak area ratio. Test compounds and positive controls were tested in duplicate. The percentage of inhibition was calculated as the ratio of substrate metabolite detected in treated and non-treated wells.
# [5] = biological target: T4, cytochrome P450 2C19 (Homo sapiens, UniProt P33261); assay: CYP inhibition in human liver microsomes; assay type: in vitro ADME; details: 10 µM
# T4 construct: Corning Cat # 452117); tissue Corning 452117; host or cells: human liver microsomes
# T4 sequence (P33261 whole entry): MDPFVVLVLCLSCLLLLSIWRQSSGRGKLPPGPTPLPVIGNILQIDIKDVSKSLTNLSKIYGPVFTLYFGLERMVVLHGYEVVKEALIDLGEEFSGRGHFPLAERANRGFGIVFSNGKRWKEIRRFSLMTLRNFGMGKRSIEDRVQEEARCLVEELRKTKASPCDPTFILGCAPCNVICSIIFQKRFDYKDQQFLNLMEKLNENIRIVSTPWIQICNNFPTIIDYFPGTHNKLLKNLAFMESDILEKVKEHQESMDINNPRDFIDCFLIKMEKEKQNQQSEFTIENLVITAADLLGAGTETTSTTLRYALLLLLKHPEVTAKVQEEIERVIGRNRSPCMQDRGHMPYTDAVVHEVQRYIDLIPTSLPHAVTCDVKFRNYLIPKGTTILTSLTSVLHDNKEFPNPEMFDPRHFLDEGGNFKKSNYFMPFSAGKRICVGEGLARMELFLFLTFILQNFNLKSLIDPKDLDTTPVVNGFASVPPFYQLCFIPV
# Description: as §1
# [6] = biological target: T5, cytochrome P450 2C9 (Homo sapiens, UniProt P11712); assay: CYP inhibition in human liver microsomes; assay type: in vitro ADME; details: 10 µM
# T5 construct: Corning Cat # 452117); tissue Corning 452117; host or cells: human liver microsomes
# T5 sequence (P11712 whole entry): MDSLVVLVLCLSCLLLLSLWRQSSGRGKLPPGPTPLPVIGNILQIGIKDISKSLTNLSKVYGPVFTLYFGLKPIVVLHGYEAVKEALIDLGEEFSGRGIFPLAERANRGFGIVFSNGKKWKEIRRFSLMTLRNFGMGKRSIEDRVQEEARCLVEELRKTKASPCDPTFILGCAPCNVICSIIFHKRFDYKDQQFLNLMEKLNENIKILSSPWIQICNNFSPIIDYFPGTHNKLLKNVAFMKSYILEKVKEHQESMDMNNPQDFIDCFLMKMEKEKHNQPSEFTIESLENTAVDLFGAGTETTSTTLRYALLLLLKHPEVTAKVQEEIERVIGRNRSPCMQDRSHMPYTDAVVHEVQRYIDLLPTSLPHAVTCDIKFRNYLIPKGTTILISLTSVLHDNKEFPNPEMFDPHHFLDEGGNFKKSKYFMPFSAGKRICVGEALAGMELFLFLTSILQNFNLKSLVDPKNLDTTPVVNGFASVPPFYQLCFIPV
# Description: as §1
# [7] = biological target: T6, cytochrome P450 2D6 (Homo sapiens, UniProt P10635); assay: CYP inhibition in human liver microsomes; assay type: in vitro ADME; details: 10 µM
# T6 construct: Corning Cat # 452117); tissue Corning 452117; host or cells: human liver microsomes
# T6 sequence (P10635 whole entry): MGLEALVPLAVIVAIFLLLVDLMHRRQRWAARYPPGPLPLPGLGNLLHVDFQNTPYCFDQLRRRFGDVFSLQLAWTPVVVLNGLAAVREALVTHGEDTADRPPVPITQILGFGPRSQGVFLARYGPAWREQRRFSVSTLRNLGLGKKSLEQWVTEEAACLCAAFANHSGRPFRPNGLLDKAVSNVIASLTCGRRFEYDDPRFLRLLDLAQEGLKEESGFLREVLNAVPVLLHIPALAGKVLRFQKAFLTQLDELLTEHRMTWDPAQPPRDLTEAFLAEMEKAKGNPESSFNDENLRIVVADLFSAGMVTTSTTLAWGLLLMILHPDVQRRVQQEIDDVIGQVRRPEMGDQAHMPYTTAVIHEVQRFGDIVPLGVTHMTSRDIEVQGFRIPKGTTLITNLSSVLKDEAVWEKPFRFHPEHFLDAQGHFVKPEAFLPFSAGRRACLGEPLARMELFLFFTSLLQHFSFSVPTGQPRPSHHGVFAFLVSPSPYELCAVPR
# Description: as §1
# [8] = biological target: T7, cytochrome P450 3A4 (Homo sapiens, UniProt P08684); assay: CYP inhibition in human liver microsomes; assay type: in vitro ADME; details: 10 µM
# T7 construct: Corning Cat # 452117); tissue Corning 452117; host or cells: human liver microsomes
# T7 sequence (P08684 whole entry): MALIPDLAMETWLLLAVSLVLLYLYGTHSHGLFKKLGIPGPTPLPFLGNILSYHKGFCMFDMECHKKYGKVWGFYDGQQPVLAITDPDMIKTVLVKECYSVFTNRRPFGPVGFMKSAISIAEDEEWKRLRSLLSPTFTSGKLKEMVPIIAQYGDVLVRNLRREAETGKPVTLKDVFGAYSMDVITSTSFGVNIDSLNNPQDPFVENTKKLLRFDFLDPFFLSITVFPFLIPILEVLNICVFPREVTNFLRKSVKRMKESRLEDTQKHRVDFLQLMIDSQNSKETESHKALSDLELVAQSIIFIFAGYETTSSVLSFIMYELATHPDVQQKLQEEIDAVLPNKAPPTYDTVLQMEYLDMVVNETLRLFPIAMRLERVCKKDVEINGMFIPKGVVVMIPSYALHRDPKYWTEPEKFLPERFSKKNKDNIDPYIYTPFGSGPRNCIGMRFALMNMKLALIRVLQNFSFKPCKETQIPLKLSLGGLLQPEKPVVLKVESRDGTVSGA
# Description: as §1
# [9] = Cryopreserved hepatocyte stability; assay type: in vitro ADME; details: read-out: Liver Hepatocytes Estimation T1/2
# Description: This study was conducted at Wuxi (http://www.wuxi.com/). […] Stock solutions of test compound (10 mM; 100% DMSO) and positive controls (7-ethoxycoumarin and 7-hydroxycoumarin; 30 mM; 100% DMSO) were diluted to 1 mM and 3 mM with DMSO and then diluted to 100 μM and 300 μM with acetonitrile (dosing solutions). Cryopreserved cells (from Human Donors, Bioreclamation IVT, Cat No. X008001 and from male C57 Mice, Bioreclamation IVT, Cat No. S00463) were thawed, isolated and suspended in Williams’ Medium E, then diluted with pre-warmed Williams’ Medium E to 0.5 × 10^6 cells/mL. Cell viability was tested by trypan blue exclusion after thawing. A volume of 2 μL of dosing solution and 198 μL of pre-warmed cell suspensions were added to a 96-well plate and incubated at 37 °C (5% CO2) with constant shaking at 600 rpm. Following different incubation times (0, 15, 30, 60 and 90 min), 20 μL of each sample was transferred to a well containing 80 μL of ice-cold stop solution (acetonitrile containing 200 ng/mL tolbutamide and 200 ng/mL labetalol as internal standards). Plates were vortexed at 27 g for 10 min and then centrifuged at 3220 × g for 20 min at 4 °C. An aliquot of supernatant (75 μL) was transferred from each well and mixed with 75 μL of ultra-pure water before submitting to LC-MS/MS analysis. Concentrations of test and control compounds were quantified by LC-MS/MS using a peak area ratio of analyte/internal standard, and the percent loss of the parent compound was calculated at each time point to determine the half-life (t1/2, min). Experiments were performed in duplicate.
# [10] = Cytotoxicity (LC50); assay type: cell-based; details: human, THLE-2 cells (immortalized liver cell line, ATCC CRL-2706)
# [11] = Cytotoxicity (LC50); assay type: cell-based; details: human, PBMCs from healthy donors, 72-h exposure
# [12] = cryopreserved hepatocytes, Human
# [13] = male, C57, cryopreserved hepatocytes, Mouse
# Chain of HDAC1 (Q13547 whole entry): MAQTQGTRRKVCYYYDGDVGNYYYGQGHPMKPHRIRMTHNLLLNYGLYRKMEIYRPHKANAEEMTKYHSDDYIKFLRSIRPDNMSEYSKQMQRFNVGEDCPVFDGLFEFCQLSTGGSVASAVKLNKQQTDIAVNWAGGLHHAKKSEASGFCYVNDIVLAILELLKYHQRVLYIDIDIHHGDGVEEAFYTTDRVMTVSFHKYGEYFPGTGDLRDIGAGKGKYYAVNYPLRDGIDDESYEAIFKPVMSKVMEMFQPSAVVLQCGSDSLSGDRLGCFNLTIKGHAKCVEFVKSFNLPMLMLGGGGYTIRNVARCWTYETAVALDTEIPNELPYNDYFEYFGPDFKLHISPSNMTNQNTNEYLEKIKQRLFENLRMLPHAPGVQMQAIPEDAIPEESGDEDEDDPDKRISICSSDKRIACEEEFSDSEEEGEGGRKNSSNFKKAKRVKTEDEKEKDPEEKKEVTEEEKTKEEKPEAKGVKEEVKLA
# T1 sequence (P56524 whole entry): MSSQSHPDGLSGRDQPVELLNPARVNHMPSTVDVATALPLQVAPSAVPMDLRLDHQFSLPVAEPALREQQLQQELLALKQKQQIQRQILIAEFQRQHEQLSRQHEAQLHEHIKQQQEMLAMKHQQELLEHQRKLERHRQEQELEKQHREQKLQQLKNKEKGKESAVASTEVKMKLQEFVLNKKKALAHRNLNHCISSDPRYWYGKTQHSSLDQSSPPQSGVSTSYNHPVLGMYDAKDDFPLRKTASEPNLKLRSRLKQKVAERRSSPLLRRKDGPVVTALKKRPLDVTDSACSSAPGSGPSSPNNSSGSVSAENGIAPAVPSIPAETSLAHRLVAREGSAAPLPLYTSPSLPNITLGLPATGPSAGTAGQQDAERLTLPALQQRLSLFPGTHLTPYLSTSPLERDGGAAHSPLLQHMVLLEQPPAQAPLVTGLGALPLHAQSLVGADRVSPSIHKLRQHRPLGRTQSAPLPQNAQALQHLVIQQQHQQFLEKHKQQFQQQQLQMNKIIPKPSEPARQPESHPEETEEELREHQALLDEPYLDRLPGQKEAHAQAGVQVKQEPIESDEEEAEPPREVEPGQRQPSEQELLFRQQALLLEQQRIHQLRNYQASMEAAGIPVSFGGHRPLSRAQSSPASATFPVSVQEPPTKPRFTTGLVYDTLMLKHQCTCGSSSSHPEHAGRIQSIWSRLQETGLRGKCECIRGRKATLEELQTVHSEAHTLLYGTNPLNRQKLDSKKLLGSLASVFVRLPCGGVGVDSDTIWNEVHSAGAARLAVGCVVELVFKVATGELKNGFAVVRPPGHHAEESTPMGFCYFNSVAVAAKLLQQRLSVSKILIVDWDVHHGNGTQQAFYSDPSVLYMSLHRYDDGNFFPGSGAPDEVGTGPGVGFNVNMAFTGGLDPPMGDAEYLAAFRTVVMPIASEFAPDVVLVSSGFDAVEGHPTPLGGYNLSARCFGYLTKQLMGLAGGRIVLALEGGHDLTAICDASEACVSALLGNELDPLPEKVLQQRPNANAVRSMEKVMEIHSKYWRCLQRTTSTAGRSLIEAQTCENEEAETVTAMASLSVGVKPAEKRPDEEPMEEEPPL
structure (smiles),measurement,setting,value
"COc1cc2nc(-c3ccc(C)o3)cc(NCC3CCN(c4ncc(C(=O)NO)cn4)CC3)c2cc1OC [CM-444, 2-[4-[[[6,7-dimethoxy-2-(5-methyl-2-furyl)-4-quinolyl]amino]methyl]-1-piperidyl]pyrimidine-5-carbohydroxamic acid]",inhibition at 10 µM,[1],90%
same,IC50,[1]; read-out: IC50,6.55 nM
same,IC50,[2],62 nM
same,inhibition at 10 µM,[2],96%
same,IC50,[3],15 nM
same,inhibition at 10 µM,[3],96%
same,P450S Inhibition (1A2),[4],58.8%
same,P450S Inhibition (2C19),[5],5.6%
same,P450S Inhibition (2C9),[6],0%
same,P450S Inhibition (2D6),[7],10.8%
same,P450S Inhibition (3A4),[8],50.8%
same,half-life at 1 µM,[9]; [12],71.1 min
same,half-life at 1 µM,[9]; [13],22.8 min
same,CC50,[10],794 nM
same,CC50 at 72 h,[11],1240 nM
"COc1cc2nc(-c3cc(C)oc3C)cc(NCC3CCN(c4ncc(C(=O)NO)cn4)CC3)c2cc1OC [CM-1758, 2-[4-[[[2-(2,5-dimethyl-3-furyl)-6,7-dimethoxy-4-quinolyl]amino]methyl] -1-piperidyl]pyrimidine-5-carbohydroxamic acid]",inhibition at 10 µM,[1],90%
same,IC50,[1]; read-out: HDAC1 IC50,4.32 nM
same,IC50,[1]; read-out: IC50,4.3 nM
same,IC50,[2],130 nM
same,inhibition at 10 µM,[2],97%
same,IC50,[3],29 nM
same,inhibition at 10 µM,[3],98%
same,P450S Inhibition (1A2),[4],55.4%
same,P450S Inhibition (2C19),[5],23.7%
same,P450S Inhibition (2C9),[6],12.2%
same,P450S Inhibition (2D6),[7],13.1%
same,P450S Inhibition (3A4),[8],46.9%
same,half-life at 1 µM,[9]; [12],92.1 min
same,half-life at 1 µM,[9]; [13],19.5 min
same,CC50,[10],779 nM
same,CC50 at 72 h,[11],2410 nM
